Data: the RepoRT retention time repository (doi:10.1021/es4044374)

Test: RP, Waters XBridge C18, 50 × 2.1 mm, 3.5 µm, 30 °C, 0.2 mL/min, estimated dead time 0.55 min; A: water + 0.1% formic acid, pH 3; B: methanol + 0.1% formic acid, pH 3; gradient (min/%B) 0/10 4/50 17/95 25/95 25.1/10 30/10
Conditions: stereoisomer not certain

| Compound | LC retention time [min] |
| --- | --- |
| CNC(=N[N+](=O)[O-])NCc1cnc(Cl)s1 [Clothianidin] | 4.9 |
| Clc1ccccc1C(c1ccccc1)(c1ccccc1)n1ccnc1 [Clotrimazole] | 8.8 |
| CN1CCN(C2=Nc3cc(Cl)ccc3Nc3ccccc32)CC1 [Clozapine] | 6.4 |
| COC(=O)C1C(OC(=O)c2ccccc2)CC2CCC1N2C (stereo not given) [Cocaine] | 5 |
| COc1ccc2c3c1OC1C(O)C=CC4C(C2)N(C)CCC341 (stereo not given) [Codeine] | 2.8 |
| CCNc1nc(Cl)nc(NC(C)(C)C#N)n1 [Cyanazine] | 6.6 |
| O=S(=O)(O)NC1CCCCC1 [Cyclamate] | 3.6 |
| O=P1(N(CCCl)CCCl)NCCCO1 (stereo not given) [Cyclophosphamide] | 6.3 |
| CCNC(=O)NC(=O)C(C#N)=NOC [Cymoxanil] | 5.6 |
| CC(C1CC1)C(O)(Cn1cncn1)c1ccc(Cl)cc1 (stereo not given) [Cyproconazole] | 11.5 |
| Cc1cc(C2CC2)nc(Nc2ccccc2)n1 [Cyprodinil] | 9.4 |
| CNCCCC(C#N)(c1ccc(OC)c(OC)c1)C(C)C (stereo not given) [D617] | 6.3 |
| CCCCCCCCCC[N+](C)(C)[O-] [DDAO] | 10.4 |
| CCN(CC)C(=O)c1cccc(C)c1 [DEET] | 8.6 |
| CCOC(=O)Nc1cccc(OC(=O)Nc2ccccc2)c1 [Desmedipham] | 9.2 |
| CC1CC2C3CCC4=CC(=O)C=CC4(C)C3(F)C(O)CC2(C)C1(O)C(=O)CO (stereo not given) [Dexamethasone] | 9.5 |
| COc1ccc2c(c1)C13CCCCC1C(C2)N(C)CC3 (stereo not given) [Dextromethorphan] | 6.6 |
| CC(=O)Nc1c(I)c(NC(C)=O)c(I)c(C(=O)O)c1I [Diatrizoate] | 1.6 |
| CN1C(=O)CN=C(c2ccccc2)c2cc(Cl)ccc21 [Diazepam] | 10.1 |
| CCOP(=S)(OCC)Oc1cc(C)nc(C(C)C)n1 [Diazinon] | 13 |
| CCOP(=O)(OCC)Oc1cc(C)nc(C(C)C)n1 [Diazoxon] | 9.5 |
| COc1c(Cl)ccc(Cl)c1C(=O)O [Dicamba] | 7 |
| N#Cc1c(Cl)cccc1Cl [Dichlobenil] | 8.5 |

| Compound | LC retention time [min] |
| --- | --- |
| CC(Oc1ccc(Cl)cc1Cl)C(=O)O (stereo not given) [Dichlorprop] | 10.7 |
| O=C(O)Cc1ccccc1Nc1c(Cl)cccc1Cl [Diclofenac] | 12.8 |
| CC1COC(Cn2cncn2)(c2ccc(Oc3ccc(Cl)cc3)cc2Cl)O1 (stereo not given) [Difenoconazole] | 14.1 |
| O=C(Nc1ccc(F)cc1F)c1cccnc1Oc1cccc(C(F)(F)F)c1 [Diflufenican] | 14.4 |
| COCCOCCOC [Diglyme] | 3.2 |
| COCCN(C(=O)CS(=O)(=O)O)c1c(C)cccc1C [Dimethachlor ESA] | 5.9 |
| COCCN(C(=O)C(=O)O)c1c(C)cccc1C [Dimethachlor OXA] | 6.6 |
| COCCN(C(=O)CCl)c1c(C)cccc1C [Dimethachlor] | 9.1 |
| COCC(C)N(C(=O)C(=O)O)c1c(C)csc1C (stereo not given) [Dimethenamid OXA] | 7.5 |
| COCC(C)N(C(=O)CCl)c1c(C)csc1C (stereo not given) [Dimethenamid-P] | 10 |
| COCC(C)N(C(=O)CS(=O)(=O)O)c1c(C)csc1C (stereo not given) [Dimethenamide ESA] | 6.7 |
| CNC(=O)CSP(=S)(OC)OC [Dimethoate] | 5.2 |
| COc1ccc(C(=CC(=O)N2CCOCC2)c2ccc(Cl)cc2)cc1OC [Dimethomorph] | 10.8 |
| CCC(C)c1cc([N+](=O)[O-])cc([N+](=O)[O-])c1O (stereo not given) [Dinoseb] | 13 |
| CC(=O)N(C)N(C(=O)C(=O)N(C)C)c1ccccc1 [Dioxoaminopyrine] | 5.2 |
| NC(=O)Nc1ccc(Cl)c(Cl)c1 [Diuron-desdimethyl] | 8.3 |
| CNC(=O)Nc1ccc(Cl)c(Cl)c1 [Diuron-desmethyl] | 8.5 |
| CN(C)C(=O)Nc1ccc(Cl)c(Cl)c1 [Diuron] | 8.9 |
| CCCCc1oc2ccc(NS(C)(=O)=O)cc2c1C(=O)c1ccc(OCCCN(CCCC)CCCC)cc1 [Dronedarone] | 11.5 |
| CC=C1N(C)C(C)CC1(c1ccccc1)c1ccccc1 (stereo not given) [EDDP] | 6.5 |
| CNC(C)C(O)c1ccccc1 (stereo not given) [Ephedrine] | 2.9 |
| Fc1ccc(C2(Cn3cncn3)OC2c2ccccc2Cl)cc1 (stereo not given) [Epoxiconazole] | 11.7 |
| CCCCc1ncc(C=C(Cc2cccs2)C(=O)O)n1Cc1ccc(C(=O)O)cc1 [Eprosartan] | 6.3 |

| Compound | LC retention time [min] |
| --- | --- |
| CCC1OC(=O)C(C)C(OC2CC(C)(OC)C(O)C(C)O2)C(C)C(OC2OC(C)CC(N(C)C)C2O)C(C)(O)CC(C)C(=O)C(C)C(O)C1(C)O (stereo not given) [Erythromycin] | 8.5 |
| CCC(CO)NCCNC(CC)CO (stereo not given) [Ethambutol] | 9.6 |
| CC1(C)C(=O)Oc2ccc(OS(C)(=O)=O)cc21 [Ethofumesate-2-keto] | 6 |
| CCOC1Oc2ccc(OS(C)(=O)=O)cc2C1(C)C (stereo not given) [Ethofumesate] | 10 |
| C=C1CC2C(CCC3(C)C(=O)CCC23)C2(C)C=CC(=O)C=C12 (stereo not given) [Exemestane] | 10.1 |
| CC(C)OC(=O)C(C)(C)Oc1ccc(C(=O)c2ccc(Cl)cc2)cc1 [Fenofibrate] | 15.7 |
| CC(C)(Oc1ccc(C(=O)c2ccc(Cl)cc2)cc1)C(=O)O [Fenofibric acid] | 12.6 |
| CCOC(=O)NCCOc1ccc(Oc2ccccc2)cc1 [Fenoxycarb] | 12.6 |
| CC(Cc1ccc(C(C)(C)C)cc1)CN1CCCCC1 (stereo not given) [Fenpropidin] | 9.5 |
| CC(Cc1ccc(C(C)(C)C)cc1)CN1CC(C)OC(C)C1 (stereo not given) [Fenpropimorph] | 9.4 |
| N#Cc1nn(-c2c(Cl)cc(C(F)(F)F)cc2Cl)c(N)c1C(F)(F)F [Fipronil-desulfinyl] | 12.5 |
| N#Cc1nn(-c2c(Cl)cc(C(F)(F)F)cc2Cl)c(N)c1SC(F)(F)F [Fipronil-sulfide] | 13 |
| N#Cc1nn(-c2c(Cl)cc(C(F)(F)F)cc2Cl)c(N)c1S(=O)(=O)C(F)(F)F [Fipronil-sulfone] | 13.5 |
| N#Cc1nn(-c2c(Cl)cc(C(F)(F)F)cc2Cl)c(N)c1S(=O)C(F)(F)F (stereo not given) [Fipronil] | 12.6 |
| N#CCNC(=O)c1cnccc1C(F)(F)F [Flonicamid] | 3.9 |
| CC(Oc1ccc(Oc2ccc(C(F)(F)F)cn2)cc1)C(=O)O (stereo not given) [Fluazifop] | 10.9 |
| O=[N+]([O-])c1cc(C(F)(F)F)c(Cl)c([N+](=O)[O-])c1Nc1ncc(C(F)(F)F)cc1Cl [Fluazinam] | 15.9 |
| OC(Cn1cncn1)(Cn1cncn1)c1ccc(F)cc1F [Fluconazole] | 5.3 |
| N#Cc1c[nH]cc1-c1cccc2c1OC(F)(F)O2 [Fludioxonil] | 10.7 |
| CC(C)N(C(=O)CS(=O)(=O)O)c1ccc(F)cc1 [Flufenacet ESA] | 6 |
| CC(C)N(C(=O)C(=O)O)c1ccc(F)cc1 [Flufenacet OXA] | 6.2 |
| CC(C)N(C(=O)COc1nnc(C(F)(F)F)s1)c1ccc(F)cc1 [Flufenacet] | 11.7 |
| O=C(O)c1ccccc1Nc1cccc(C(F)(F)F)c1 [Flufenamic acid] | 14.6 |

| Compound | LC retention time [min] |
| --- | --- |
| CNCCC(Oc1ccc(C(F)(F)F)cc1)c1ccccc1 (stereo not given) [Fluoxetine] | 9.2 |
| Nc1c(Cl)c(F)nc(OCC(=O)O)c1Cl [Fluroxypyr] | 6.9 |
| C[Si](Cn1cncn1)(c1ccc(F)cc1)c1ccc(F)cc1 [Flusilazole] | 12.4 |
| COc1cc(OC)nc(NC(=O)NS(=O)(=O)c2cc(NC=O)ccc2C(=O)N(C)C)n1 [Foramsulfuron] | 7.8 |
| NS(=O)(=O)c1cc(C(=O)O)c(NCc2ccco2)cc1Cl [Furosemide] | 6.8 |
| NCC1(CC(=O)O)CCCCC1 [Gabapentin] | 3.6 |
| CC1COC(=O)c2cc3c(cc21)C(C)(C)C(C)C3(C)C (stereo not given) [Galaxolidone] | 14.7 |
| Nc1ccn(C2OC(CO)C(O)C2(F)F)c(=O)n1 (stereo not given) [Gemcitabine] | 1 |
| NS(=O)(=O)c1cc2c(cc1Cl)NCNS2(=O)=O [Hydrochlorothiazide] | 2.2 |
| CC(C)Cc1ccc(C(C)C(=O)O)cc1 (stereo not given) [Ibuprofen] | 13.6 |
| O=P1(NCCCl)OCCCN1CCCl (stereo not given) [Ifosfamide] | 6.3 |
| COCc1cnc(C2=NC(C)(C(C)C)C(=O)N2)c(C(=O)O)c1 (stereo not given) [Imazamox] | 5.7 |
| O=C1NCCN1Cc1ccc(Cl)nc1 [Imidacloprid-urea] | 4.6 |
| O=[N+]([O-])/N=C1\NCCN1Cc1ccc(Cl)nc1 [Imidacloprid] | 4.8 |
| C1=Cc2ccccc2Nc2ccccc21 [Iminostilbene] | 11 |
| COc1ccc2c(c1)c(CC(=O)O)c(C)n2C(=O)c1ccc(Cl)cc1 [Indomethacin] | 12.9 |
| CN(CC(O)CO)C(=O)c1c(I)c(NC(=O)C(CO)CO)c(I)c(C(=O)N(C)CC(O)CO)c1I (stereo not given) [Iobitridol] | 1.6 |
| CCCCNC(=O)OCC#CI [Iodocarb] | 8.4 |
| CC(=O)N(CC(O)CO)c1c(I)c(C(=O)NCC(O)CO)c(I)c(C(=O)NCC(O)CO)c1I (stereo not given) [Iohexol] | 1.6 |
| CN(C(=O)CO)c1c(I)c(C(=O)NCC(O)CO)c(I)c(C(=O)NCC(O)CO)c1I (stereo not given) [Iomeprol] | 1.6 |
| CC(O)C(=O)Nc1c(I)c(C(=O)NC(CO)CO)c(I)c(C(=O)NC(CO)CO)c1I (stereo not given) [Iopamidol] | 1.2 |
